Values of other authors in paper PMC7587396, “New Zileuton-Hydroxycinnamic Acid Hybrids: Synthesis and Structure-Activity Relationship towards 5-Lipoxygenase Inhibition” (Molecules, 2020).

Target: T1, 5-LO (Homo sapiens, UniProt P09917)
T1 sequence (P09917 1-674): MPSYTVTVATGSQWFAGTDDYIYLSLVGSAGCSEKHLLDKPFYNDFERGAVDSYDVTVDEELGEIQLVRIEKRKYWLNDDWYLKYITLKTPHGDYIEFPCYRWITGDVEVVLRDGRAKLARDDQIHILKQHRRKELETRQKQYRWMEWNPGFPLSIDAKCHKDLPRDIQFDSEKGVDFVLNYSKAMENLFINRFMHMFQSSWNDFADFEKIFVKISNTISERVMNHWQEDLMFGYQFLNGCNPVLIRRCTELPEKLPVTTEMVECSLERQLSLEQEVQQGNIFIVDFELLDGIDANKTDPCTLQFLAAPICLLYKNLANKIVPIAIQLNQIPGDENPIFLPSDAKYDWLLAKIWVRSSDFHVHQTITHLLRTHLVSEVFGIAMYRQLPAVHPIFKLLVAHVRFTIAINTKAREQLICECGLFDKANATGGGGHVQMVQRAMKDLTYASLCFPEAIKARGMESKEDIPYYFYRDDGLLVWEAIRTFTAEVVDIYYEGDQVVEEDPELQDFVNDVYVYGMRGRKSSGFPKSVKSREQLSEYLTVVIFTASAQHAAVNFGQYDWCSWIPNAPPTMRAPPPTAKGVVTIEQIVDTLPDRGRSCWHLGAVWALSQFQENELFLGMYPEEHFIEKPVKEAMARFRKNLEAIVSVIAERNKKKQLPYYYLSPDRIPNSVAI
Parameters: 5-LO is highly expressed in PMNL; endogenous in cells; host or cells: human PMNL from peripheral blood of healthy volunteers
Details: read-out: IC50, inhibition of LTs biosynthesis in human PMNL; cited from earlier work

## O=C(/C=C/c1ccc(O)c(O)c1)OCCc1ccccc1 [CAPE, caffeic acid phenethyl ester]
  IC50: 520 nM
